According to patent EP0326331B1, “Substituted quinolines and cinnolines” (Dow AgroSciences LLC, priority 1988, dated 1989):

How the values were obtained:
Type in all cases: in vivo
[1] = system: southern armyworm (Spodopetra eridania Cramer); assay: Mite/insect screen, SAW; details: Spodoptera eridania, percent mortality, SAW, read-out: SAW RESULTS %; for mortality at 200 ppm: SM & MA RATE 200 PPM; for mortality at 400 ppm: SM & MA RATE 400 PPM
How it was run: (§1)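 Percent mortality was scored after standard exposure periods, following spraying of leaves to runoff (both surfaces, 10 psi, 1 h drying) with water dilutions of compound in emulsifier-containing acetone/alcohol (50:50). Armyworms received excised treated leaves in dishes.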

[2] = system: Cercospora beticola (leaf spot); assay: Test 1 greenhouse foliar spray screen, leaf spot on sugar beet; details: disease control rating, foliar spray on sugar beet, 400 ppm (+++ at 100 ppm)
[3] = system: corn rootworm; assay: Mite/insect screen, CRW; details: percent mortality, read-out: CRW RESULTS %; for mortality at 12 ppm: CRW RATE 12.00 PPM; for mortality at 24 ppm: CRW RATE 24.00 PPM
How it was run: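 Corn rootworm mortality (%) was evaluated following standard exposure times. Test material was emulsified by dissolution in acetone/alcohol (1:1) containing sulfonate/nonionic emulsifier blends TOXIMUL R (23 g/L) and TOXIMUL S (13 g/L), and water-diluted to the indicated doses.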

[4] = system: Puccinia recondita tritici (leaf rust); assay: Test 1 greenhouse foliar spray screen, leaf rust on wheat; details: disease control rating, foliar spray on wheat, 400 ppm (+++ at 100 ppm)
[5] = system: Erysiphe graminis tritici (powdery mildew); assay: Test 1 greenhouse foliar spray screen, powdery mildew on wheat; details: disease control rating, foliar spray on wheat, 400 ppm (+++ at 100 ppm)
[6] = system: Pyricularia oryzae (rice blast); assay: whole plant or invertebrate; details: for RICE BLAST: disease control rating, foliar spray on rice, 400 ppm (+++ at 100 ppm)
[7] = system: Twospotted spider mites (Tetranychus urticae Koch); assay: Mite/insect screen, SM; details: for mortality at 200 ppm / mortality at 400 ppm: Tetranychus urticae, percent mortality, SAW, read-out: SM RESULTS %; for mortality at 200 ppm: SM & MA RATE 200 PPM; for mortality at 400 ppm: SM & MA RATE 400 PPM; for activity as miticides: summary statement in the description
How it was run: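 Read-out: percent mortality after standard exposure periods. Test solutions were water dilutions of compound dissolved in acetone/alcohol (50:50) with emulsifier blends; leaves were sprayed to runoff on both surfaces and air-dried for one hour before exposure.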

[8] = system: Septoria tritici (leaf blotch); assay: Test 1 greenhouse foliar spray screen, leaf blotch on wheat; details: disease control rating, foliar spray on wheat, 400 ppm (+++ at 100 ppm)
[9] = system: Venturia inaequalis (apple scab); assay: Test 1 greenhouse foliar spray screen, apple scab on apple seedling; details: disease control rating, foliar spray on apple seedling, 400 ppm (+++ at 100 ppm)
[10] = system: melon aphids (Aphis gossypii Glover); assay: Mite/insect screen, MA; details: Aphis gossypii, percent mortality, SAW, read-out: MA RESULTS %; for mortality at 200 ppm: SM & MA RATE 200 PPM; for mortality at 400 ppm: SM & MA RATE 400 PPM
How it was run: as §1

[11] = system: Pseudoperonospora cubensis (downy mildew); assay: Test 1 greenhouse foliar spray screen, downy mildew on squash; details: disease control rating, foliar spray on squash, 400 ppm (+++ at 100 ppm)
[12] = system: Botrytis cinerea (gray mold); assay: Test 1 greenhouse foliar spray screen, gray mold on grape berries; details: disease control rating, spray on grape berries, 400 ppm (+++ at 100 ppm)

SMILES | mortality at 200 ppm [1] [%] | mortality at 400 ppm [1] [%] | LEAF SPOT [2] | mortality at 12 ppm [3] [%] | mortality at 24 ppm [3] [%] | LEAF RUST [4] | POWD MDEW [5] | RICE BLAST [6] | mortality at 200 ppm [7] [%] | mortality at 400 ppm [7] [%] | LEAF BLOT [8] | APPL SCAB [9] | mortality at 200 ppm [10] [%] | mortality at 400 ppm [10] [%] | DOWN MDEW [11] | GRAY MOLD [12] | activity as miticides [7] | activity against rice blast ([6]; summary statement in the description)
Clc1ccc2c(NCCc3ccc(Cl)c(Cl)c3)ccnc2c1 [Example 101, 7-chloro-N-[2-(3,4-dichlorophenyl)ethyl]-4-quinolinamine] | 0 | 0 | +++ (90-100% control at 100 ppm) | 0 | 0 | + (20-89% control at 400 ppm) | +++ (90-100% control at 100 ppm) | - (0-19% control at 400 ppm) | 0 | 0 | - (0-19% control at 400 ppm) | + (20-89% control at 400 ppm) | 0 | 0 | +++ (90-100% control at 100 ppm) | - (0-19% control at 400 ppm) |  | 
Fc1cccc(Cl)c1CCNc1ccnc2c(F)cccc12 [Example 103, N-[2-(2-chloro-6-fluorophenyl)ethyl]-8-fluoro-4-quinolinamine] | 0 | 0 | + (20-89% control at 400 ppm) | 0 | 0 | ++ (90-100% control at 400 ppm) | + (20-89% control at 400 ppm) | ++ (90-100% control at 400 ppm) | 0 | 0 | + (20-89% control at 400 ppm) | +++ (90-100% control at 100 ppm) | 0 | 0 | +++ (90-100% control at 100 ppm) | - (0-19% control at 400 ppm) |  | 
FC(F)(F)c1ccc2c(NCCc3ccc(Cl)cc3Cl)ccnc2c1 [Example 104, N-[2-(2,4-dichlorophenyl)ethyl]-7-(trifluoromethyl)-4-quinolinamine] | 0 | 60 | + (20-89% control at 400 ppm) | 0 | 0 | - (0-19% control at 400 ppm) | - (0-19% control at 400 ppm) | - (0-19% control at 400 ppm) | 0 | 0 | - (0-19% control at 400 ppm) | + (20-89% control at 400 ppm) | 0 | 0 | ++ (90-100% control at 400 ppm) | - (0-19% control at 400 ppm) |  | 
CCN(CCc1ccc(Cl)cc1)c1ccnc2c(F)cccc12 [Example 105, N-[2-(4-chlorophenyl)ethyl]-N-ethyl-8-fluoro-4-quinolinamine] | 30 | 0 | + (20-89% control at 400 ppm) | 0 | 0 | +++ (90-100% control at 100 ppm) | +++ (90-100% control at 100 ppm) | ++ (90-100% control at 400 ppm) | 100 | 0 | + (20-89% control at 400 ppm) | - (0-19% control at 400 ppm) | 80 | 50 | +++ (90-100% control at 100 ppm) | - (0-19% control at 400 ppm) | particularly excellent activity | 
CN(c1ccc(F)cc1)c1ccnc2cc(Cl)ccc12 [Example 106, 7-chloro-N-(4-fluorophenyl)-N-methyl-4-quinolinamine] |  | 0 | + (20-89% control at 400 ppm) |  | 0 | + (20-89% control at 400 ppm) | ++ (90-100% control at 400 ppm) | + (20-89% control at 400 ppm) |  | 0 | + (20-89% control at 400 ppm) | - (0-19% control at 400 ppm) |  | 0 | + (20-89% control at 400 ppm) | - (0-19% control at 400 ppm) |  | 
FC(F)(F)c1cccc(CCNc2ccnc3cc(Cl)ccc23)c1 [Example 107, 7-chloro-N-[2-[3-(trifluoromethyl)phenyl]ethyl]-4-quinolinamine] | 0 | 0 | - (0-19% control at 400 ppm) | 0 | 0 | + (20-89% control at 400 ppm) | ++ (90-100% control at 400 ppm) | + (20-89% control at 400 ppm) | 0 | 0 | - (0-19% control at 400 ppm) | - (0-19% control at 400 ppm) | 0 | 0 | +++ (90-100% control at 100 ppm) | - (0-19% control at 400 ppm) |  | 
Fc1cccc2c(NCCc3cccc(Br)c3)ccnc12 [Example 108, N-[2-(3-bromophenyl)ethyl]-8-fluoro-4-quinolinamine] | 0 |  | - (0-19% control at 400 ppm) | 0 |  | ++ (90-100% control at 400 ppm) | + (20-89% control at 400 ppm) | + (20-89% control at 400 ppm) | 0 |  | +++ (90-100% control at 100 ppm) | - (0-19% control at 400 ppm) | 0 |  | + (20-89% control at 400 ppm) | - (0-19% control at 400 ppm) |  | 
CC(C)(C)c1ccc(CCNc2ccnc3c(F)cccc23)cc1 [Example 111, N-[2-[4-(t-butyl)phenyl]ethyl]--8-fluoro-4-quinolinamine] | 20 | 20 | - (0-19% control at 400 ppm) | 0 | 0 | +++ (90-100% control at 100 ppm) | + (20-89% control at 400 ppm) | ++ (90-100% control at 400 ppm) | 90 | 80 | +++ (90-100% control at 100 ppm) | - (0-19% control at 400 ppm) | 0 | 0 | +++ (90-100% control at 100 ppm) | - (0-19% control at 400 ppm) | particularly excellent activity | particularly excellent activity
Fc1cccc2c(NCCc3ccc(-c4ccccc4)cc3)ccnc12 [Example 113, N-[2-(1,1-biphenyl)-4-yl-ethyl]-8-fluoro-4-quinolinamine] | 100 | 70 | - (0-19% control at 400 ppm) | 0 | 100 | +++ (90-100% control at 100 ppm) | + (20-89% control at 400 ppm) | +++ (90-100% control at 100 ppm) | 40 | 0 | +++ (90-100% control at 100 ppm) | - (0-19% control at 400 ppm) | 0 | 0 | +++ (90-100% control at 100 ppm) | - (0-19% control at 400 ppm) |  | 
